The test system of one assay is KRas G12C mutant. Kind of assay: Ras GTP Binding Domain Inhibition Assay (Ras Superfamily Assay). Particulars: 20 μM compound; for KRas G12C mutant + SOS: % inh.: with SOS; for KRas G12C mutant: % inh.: without SOS. The essentials: (§1)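 Ni-plate capture of His-tagged protein (10-30 μg/mL, o/n 4° C); cpd 20 μM or dilution series, 1% DMSO, 3 h RT ± Sos 556-1049 last h; 100 nM Cy-labelled GTP 45 min RT; 3× wash; fluorescence read.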

A further assay deals with KRas Q61H mutant. Described as above. Particulars: 20 μM compound; for KRas Q61H mutant + SOS: % inh.: with SOS; for KRas Q61H mutant: % inh.: without SOS. In a few lines: as §1
A further assay deals with T1, Rho-A (Homo sapiens, UniProt P61586).
T1 construct: made in house
T1 sequence (P61586 whole entry): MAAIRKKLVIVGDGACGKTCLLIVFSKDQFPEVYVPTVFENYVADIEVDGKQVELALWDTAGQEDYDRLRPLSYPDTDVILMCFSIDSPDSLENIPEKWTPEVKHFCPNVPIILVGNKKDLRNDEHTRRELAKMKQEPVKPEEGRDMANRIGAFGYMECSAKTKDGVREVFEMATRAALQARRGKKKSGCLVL
Described as above. Particulars: read-out: Rho-A: % inh.. The essentials: as §1

Assay [1] has as its system Smad2/Smad3 phosphorylation. Nature of the assay: Phospho-Smad2/3 Inhibition Assay (western blot), Panc-1. The settings on record: at 10 μM, Panc-1 pancreatic cancer cell line; starred symbols = activation. The class given is cell-based, human. In a few lines: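 Western blotting of lysates (15-50 μg protein) read phosphorylation of Smad2 Ser465/467 and Smad3 Ser423/425. Before lysis, Panc-1 cells got 1 h of 10 ng/ml TGF-b1 following 3 h compound exposure at 37° C (10 μM final, or serial dilutions for IC50, 0.3% DMSO) after overnight 0.5% FBS starvation.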

Where a name gives a salt, the structure may show the parent alone.

Regarding `CO[C@H]1CC[C@@H](Nc2nc(-c3nccn3C)nn3cc(-c4ccn(C(C)C)n4)c(-c4ccccc4)c23)C1` (racemic) [Compound 18, rac 6-(1-Isopropyl-1H-pyrazol-3-yl)-N-((1R,3S)-3-methoxycyclopentyl)-2-(1-methyl-1H-imidazol-2-yl)-5-phenylpyrrolo[2,1-f][1,2,4]triazin-4-amine hydrochloride], in the assay on KRas G12C mutant, the “KRas G12C mutant + SOS: % inh.” value is reported as 0 (0 = 0% inhibition) and the “KRas G12C mutant: % inh.” value is recorded as 0 (0 = 0% inhibition). Also, in the assay with KRas Q61H mutant, the “KRas Q61H mutant + SOS: % inh.” value is on record as “A (A = 1-25% inhibition)” and the “KRas Q61H mutant: % inh.” value was 0 (0 = 0% inhibition). Also, the inhibition at 20 µM at Rho-A lay within 1 to 25%.
Regarding `COc1cccc(Nc2nc(-c3nccn3C)nn3cc(-c4ccn(C(C)C)n4)c(C)c23)n1` [Compound 7, 6-(1-Isopropyl-1H-pyrazol-3-yl)-N-(6-methoxypyridin-2-yl)-5-methyl-2-(1-methyl-1H-imidazol-2-yl)pyrrolo[2,1-f][1,2,4]triazin-4-amine], in the assay on KRas G12C mutant, the “KRas G12C mutant + SOS: % inh.” value is on record as “A (A = 1-25% inhibition)” and the “KRas G12C mutant: % inh.” value was 0 (0 = 0% inhibition). In the assay on KRas Q61H mutant, the “KRas Q61H mutant + SOS: % inh.” value is “A (A = 1-25% inhibition)” and the “KRas Q61H mutant: % inh.” value is recorded as “B (B = 26-49% inhibition)”. In addition, the inhibition at 20 µM at Rho-A amounted to 0%.
Regarding `COC[C@@H]1CC[C@@H]1CNc1nc(-c2nccn2C)nn2cc(-c3ccn(C(C)C)n3)c(-c3ccccc3)c12` (racemic) [Compound 20, rac 6-(1-Isopropyl-1H-pyrazol-3-yl)-N-(((1S,2R)-2-(methoxymethyl)cyclobutyl)methyl)-2-(1-methyl-1H-imidazol-2-yl)-5-phenylpyrrolo[2,1-f][1,2,4]triazin-4-amine], in the assay with KRas G12C mutant, the “KRas G12C mutant + SOS: % inh.” value is listed as 0 (0 = 0% inhibition) and the “KRas G12C mutant: % inh.” value is listed as “A (A = 1-25% inhibition)”. Also, in the assay with KRas Q61H mutant, the “KRas Q61H mutant + SOS: % inh.” value is reported as 0 (0 = 0% inhibition) and the “KRas Q61H mutant: % inh.” value is 0 (0 = 0% inhibition). The inhibition at 20 µM on Rho-A lay within 1 to 25%.
Turning to `COc1cccc(-c2cn3nc(-c4nccn4C)nc(N[C@@H]4CC[C@@H](OC)C4)c3c2-c2ccccc2)c1Cl.Cl` (racemic) [Compound 34, rac 6-(2-Chloro-3-methoxyphenyl)-N-((1R,3R)-3-methoxycyclopentyl)-2-(1-methyl-1H-imidazol-2-yl)-5-phenylpyrrolo[2,1-f][1,2,4]triazin-4-amine hydrochloride], in the assay on KRas G12C mutant, the “KRas G12C mutant + SOS: % inh.” value is on record as “A (A = 1-25% inhibition)” and the “KRas G12C mutant: % inh.” value is 0 (0 = 0% inhibition). Further, in the assay with KRas Q61H mutant, the “KRas Q61H mutant + SOS: % inh.” value was 0 (0 = 0% inhibition) and the “KRas Q61H mutant: % inh.” value is listed as 0 (0 = 0% inhibition). Further, the inhibition at 20 µM on Rho-A lay within 1 to 25%.
Take `Cn1ccnc1-c1nc(O)c2c(-c3ccccc3)ccn2n1` [Compound 39, 2-(1-Methyl-1H-imidazol-2-yl)-5-phenylpyrrolo[2,1-f][1,2,4]triazin-4-ol]: in the assay on KRas G12C mutant, the “KRas G12C mutant + SOS: % inh.” value was “A (A = 1-25% inhibition)” and the “KRas G12C mutant: % inh.” value was “B (B = 26-49% inhibition)”. For the same compound, in the assay on KRas Q61H mutant, the “KRas Q61H mutant + SOS: % inh.” value was 0 (0 = 0% inhibition) and the “KRas Q61H mutant: % inh.” value was “A (A = 1-25% inhibition)”. Further, the inhibition at 20 µM on Rho-A worked out at 0%.
Take `COC1CCCN(c2nc(-c3nccn3C)nn3cc(-c4ccn(C(C)C)n4)c(-c4ccccc4)c23)C1` (racemic) [Compound 21, rac 6-(1-Isopropyl-1H-pyrazol-3-yl)-4-(3-methoxypiperidin-1-yl)-2-(1-methyl-1H-imidazol-2-yl)-5-phenylpyrrolo[2,1-f][1,2,4]triazine]: in the assay on KRas G12C mutant, the “KRas G12C mutant + SOS: % inh.” value is listed as 0 (0 = 0% inhibition) and the “KRas G12C mutant: % inh.” value is on record as 0 (0 = 0% inhibition). Moreover, in the assay on KRas Q61H mutant, the “KRas Q61H mutant + SOS: % inh.” value is on record as “A (A = 1-25% inhibition)” and the “KRas Q61H mutant: % inh.” value is given as 0 (0 = 0% inhibition). At Rho-A, the inhibition at 20 µM fell in the range of 1 to 25%.
In the case of `COC[C@@H]1CC[C@@H]1CNc1nc(-c2nccn2C)nn2cc(-c3ccn(C(C)C)n3)c(C)c12` (racemic) [Compound 3, rac 6-(1-Isopropyl-1H-pyrazol-3-yl)-N-(((1S,2R)-2-(methoxymethyl)cyclobutyl)methyl)-5-methyl-2-(1-methyl-1H-imidazol-2-yl)pyrrolo[2,1-f][1,2,4]triazin-4-amine], in the assay with KRas G12C mutant, the “KRas G12C mutant + SOS: % inh.” value is on record as 0 (0 = 0% inhibition) and the “KRas G12C mutant: % inh.” value is recorded as 0 (0 = 0% inhibition). For the same compound, in the assay with KRas Q61H mutant, the “KRas Q61H mutant + SOS: % inh.” value is reported as 0 (0 = 0% inhibition) and the “KRas Q61H mutant: % inh.” value was 0 (0 = 0% inhibition). For the same compound, the inhibition at 20 µM at Rho-A came out at 0%.
Turning to `COCC1CCN(c2nc(-c3nccn3C)nn3cc(-c4ccn(C(C)C)n4)c(C)c23)C1` (racemic) [Compound 2, rac 6-(1-Isopropyl-1H-pyrazol-3-yl)-4-(3-(methoxymethyl)pyrrolidin-1-yl)-5-methyl-2-(1-methyl-1H-imidazol-2-yl)pyrrolo[2,1-f][1,2,4]triazine], in the assay with KRas G12C mutant, the “KRas G12C mutant + SOS: % inh.” value is 0 (0 = 0% inhibition) and the “KRas G12C mutant: % inh.” value was 0 (0 = 0% inhibition). In the assay on KRas Q61H mutant, the “KRas Q61H mutant + SOS: % inh.” value is 0 (0 = 0% inhibition) and the “KRas Q61H mutant: % inh.” value is 0 (0 = 0% inhibition). Further, the inhibition at 20 µM at Rho-A was 0%.
Turning to `COC1CCCN(c2nc(-c3nccn3C)nn3cc(-c4ccn(C(C)C)n4)c(C)c23)C1` (racemic) [Compound 4, rac 6-(1-Isopropyl-1H-pyrazol-3-yl)-5-methyl-2-(1-methyl-1H-imidazol-2-yl)-4-(3-(oxo-γ6-methyl)piperidin-1-yl)pyrrolo[2,1-f][1,2,4]triazine], in the assay with KRas G12C mutant, the “KRas G12C mutant + SOS: % inh.” value was 0 (0 = 0% inhibition) and the “KRas G12C mutant: % inh.” value is 0 (0 = 0% inhibition). Moreover, in the assay on KRas Q61H mutant, the “KRas Q61H mutant + SOS: % inh.” value is on record as 0 (0 = 0% inhibition) and the “KRas Q61H mutant: % inh.” value is 0 (0 = 0% inhibition). In addition, at Rho-A, the inhibition at 20 µM was 1 to 25%.
In the case of `COc1cc(Nc2nc(-c3nccn3C)nn3cc(-c4ccn(C(C)C)n4)c(-c4ccccc4)c23)ncn1` [Compound 22, 6-(1-Isopropyl-1H-pyrazol-3-yl)-N-(6-methoxypyrimidin-4-yl)-2-(1-methyl-1H-imidazol-2-yl)-5-phenylpyrrolo[2,1-f][1,2,4]triazin-4-amine], in the assay with KRas G12C mutant, the “KRas G12C mutant + SOS: % inh.” value is given as “A (A = 1-25% inhibition)” and the “KRas G12C mutant: % inh.” value is “B (B = 26-49% inhibition)”. Besides, in the assay on KRas Q61H mutant, the “KRas Q61H mutant + SOS: % inh.” value is “A (A = 1-25% inhibition)” and the “KRas Q61H mutant: % inh.” value is “B (B = 26-49% inhibition)”. In addition, the inhibition at 20 µM at Rho-A lay within 50 to 75%.
As to `Cc1c(-c2ccn(C(C)C)n2)cn2nc(-c3nccn3C)nc(Nc3noc(C4CC4)n3)c12` [Compound 75, 5-Cyclopropyl-N-(6-(1-isopropyl-1H-pyrazol-3-yl)-5-methyl-2-(1-methyl-1H-imidazol-2-yl)pyrrolo[2,1-f][1,2,4]triazin-4-yl)-1,2,4-oxadiazol-3-amine], in assay [1], the “% inh of Smad2/3 phosphorylation in Panc-1” value was “A (A = 1-25% inhibition)”. For the same compound, in the assay with KRas G12C mutant, the “KRas G12C mutant + SOS: % inh.” value was “A (A = 1-25% inhibition)” and the “KRas G12C mutant: % inh.” value is reported as “A (A = 1-25% inhibition)”. Besides, in the assay on KRas Q61H mutant, the “KRas Q61H mutant + SOS: % inh.” value is listed as “B (B = 26-49% inhibition)” and the “KRas Q61H mutant: % inh.” value is on record as “A (A = 1-25% inhibition)”. Besides, the inhibition at 20 µM at Rho-A was in the range of 50 to 75%.
For the compound `Cc1ccn2nc(-c3nccn3C)nc(N)c12.O=C(O)C(F)(F)F` [Compound 37, 5-Methyl-2-(1-methyl-1H-imidazol-2-yl)pyrrolo[2,1-f][1,2,4]triazin-4-amine trifluoroacetic acid salt], in the assay with KRas G12C mutant, the “KRas G12C mutant + SOS: % inh.” value is given as “C (C = 50-75% inhibition)” and the “KRas G12C mutant: % inh.” value is given as “C (C = 50-75% inhibition)”. In the assay on KRas Q61H mutant, the “KRas Q61H mutant + SOS: % inh.” value is reported as 0 (0 = 0% inhibition) and the “KRas Q61H mutant: % inh.” value is given as 0 (0 = 0% inhibition). Also, the inhibition at 20 µM on Rho-A came to 0%.
With `CC(C)n1ccc(-c2cn3nc(-c4nccn4C)nc(O)c3c2-c2ccccc2)n1` [Compound 17, 6-(1-Isopropyl-1H-pyrazol-3-yl)-2-(1-methyl-1H-imidazol-2-yl)-5-phenylpyrrolo[2,1-f][1,2,4]triazin-4-ol], in the assay on KRas G12C mutant, the “KRas G12C mutant + SOS: % inh.” value is recorded as “C (C = 50-75% inhibition)” and the “KRas G12C mutant: % inh.” value is “C (C = 50-75% inhibition)”. In the assay with KRas Q61H mutant, the “KRas Q61H mutant + SOS: % inh.” value was “C (C = 50-75% inhibition)” and the “KRas Q61H mutant: % inh.” value is given as “C (C = 50-75% inhibition)”. Besides, the inhibition at 20 µM at Rho-A was in the range of 76 to 100%.
Regarding `COCC1CCN(c2nc(-c3nccn3C)nn3cc(-c4ccn(C(C)C)n4)c(-c4ccccc4)c23)C1.Cl` (racemic) [Compound 19, rac 6-(1-Isopropyl-1H-pyrazol-3-yl)-4-(3-(methoxymethyl)pyrrolidin-1-yl)-2-(1-methyl-1H-imidazol-2-yl)-5-phenylpyrrolo[2,1-f][1,2,4]triazine hydrochloride salt], in the assay with KRas G12C mutant, the “KRas G12C mutant + SOS: % inh.” value is reported as “A (A = 1-25% inhibition)” and the “KRas G12C mutant: % inh.” value is 0 (0 = 0% inhibition). Further, in the assay on KRas Q61H mutant, the “KRas Q61H mutant + SOS: % inh.” value is “B (B = 26-49% inhibition)” and the “KRas Q61H mutant: % inh.” value is given as 0 (0 = 0% inhibition). In addition, the inhibition at 20 µM at Rho-A was in the range of 1 to 25%.

For the origin of these results see patent US12459951B2, “Compounds that interact with RAS superfamily proteins for treatment of cancers, inflammatory diseases, rasopathies, and fibrotic disease” (SHY Therapeutics, LLC, priority 2022, dated 2025).
